In US6344457B1, “Amino acid derivatives inhibiting extracellular matrix metalloproteinase and TNF alpha release” (Chiesi Farmaceutici S.p.A., priority 1997, dated 2002):

Tests used:
[1] = molecular target: T1, collagenase of the human monocytic stock U937 (Homo sapiens, UniProt P03956); test: Activity on collagenase; type: biochemical; conditions: radiomarked collagen, 27° C., 16 hours; read-out: C150 (nM) collagenase
T1 construct: the collagenase of the human monocytic stock U937; endogenous in cells; host or cells: U937 human monocytic cell line
T1 sequence (P03956 100-469): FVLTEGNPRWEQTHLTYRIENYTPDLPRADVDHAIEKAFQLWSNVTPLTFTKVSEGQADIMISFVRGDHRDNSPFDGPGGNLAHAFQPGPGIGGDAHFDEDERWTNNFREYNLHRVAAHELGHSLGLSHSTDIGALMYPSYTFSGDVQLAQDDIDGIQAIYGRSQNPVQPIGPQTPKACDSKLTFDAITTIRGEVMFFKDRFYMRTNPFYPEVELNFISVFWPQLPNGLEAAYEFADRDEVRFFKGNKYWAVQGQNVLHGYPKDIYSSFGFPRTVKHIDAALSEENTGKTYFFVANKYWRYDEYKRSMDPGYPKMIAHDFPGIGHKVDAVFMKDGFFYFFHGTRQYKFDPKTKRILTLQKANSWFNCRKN
Procedure: The collagenase was incubated at 27° C. for 16 hours with radiomarked collagen, and its activity was determined by the release of soluble peptides produced by the enzymatic breakdown of the collagen. The inhibiting concentration C150 for each compound was determined by measurement of the activity of the enzyme in the presence of the inhibitor at a concentration ranging between 10^−7 and 10^−12 M (the inhibitor is dissolved at a concentration of 10^−2 M in DMSO, then diluted successively by tenths in the buffer: Tris, HCl 150 mM, pH 7.5; NaCl 0.15 M; CaCl2 10 mM).

[2] = molecular target: 92 kDa gelatinase of human origin (Homo sapiens, UniProt P14780); test: Activity on gelatinase, radiomarked gelatin; type: biochemical; conditions: for IC50: test performed with radiomarked gelatin, read-out: C150 (nM) gelatinase 92 kDa*
Procedure: The anti-gelatinase activity of the compounds according to the invention also was determined on 92 kDa or 72 kDa gelatinase of human origin, in accordance with the operating mode described by Harris, E. D., Krane, S. M.; (Biochem. Biophys. Acta, 258, 566-576, 1972).
(§1) The gelatinase was incubated at 37° C. for 16 hours with radiomarked gelatin, and its activity was determined by the release of the soluble peptides produced by the enzymatic breakdown of the gelatin. The inhibiting concentration C150 for each compound was determined by measurement of the activity of the enzyme in the presence of the inhibitor at a concentration ranging between 10^−7 and 10^−12 M (the inhibitor is dissolved in the same manner as for collagenase).

[3] = molecular target: T2, 72 kDa gelatinase of human origin (Homo sapiens, UniProt P08253); test: Activity on gelatinase, synthetic substrate; type: biochemical; conditions: performed on synthetic substrate; read-out: C150 (nM) gelatinase 72 kDa**
T2 sequence (P08253 110-660): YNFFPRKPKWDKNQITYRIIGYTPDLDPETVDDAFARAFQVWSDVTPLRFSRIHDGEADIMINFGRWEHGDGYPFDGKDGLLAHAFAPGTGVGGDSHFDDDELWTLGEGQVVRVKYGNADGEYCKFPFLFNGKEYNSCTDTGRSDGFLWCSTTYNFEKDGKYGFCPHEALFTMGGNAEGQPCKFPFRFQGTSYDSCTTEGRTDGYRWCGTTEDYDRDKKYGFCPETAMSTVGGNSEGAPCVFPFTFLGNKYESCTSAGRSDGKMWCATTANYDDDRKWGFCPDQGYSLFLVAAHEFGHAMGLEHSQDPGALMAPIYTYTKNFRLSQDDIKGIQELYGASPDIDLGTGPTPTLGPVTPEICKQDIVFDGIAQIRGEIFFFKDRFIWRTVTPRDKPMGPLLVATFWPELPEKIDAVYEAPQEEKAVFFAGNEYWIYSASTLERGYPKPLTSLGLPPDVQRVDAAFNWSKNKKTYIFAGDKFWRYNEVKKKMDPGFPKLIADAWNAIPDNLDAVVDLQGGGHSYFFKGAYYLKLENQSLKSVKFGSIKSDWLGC
Procedure: The anti-gelatinase activity of the compounds according to the invention was determined on 72 kDa gelatinase of human origin, in accordance with the operating mode described by Knight, C. G., Willenbrock, F., Murphy, G. (FEBS Letters, 296 (3), 263-266, 1992).
The gelatinase was incubated at 37° C. for 10 minutes, and its activity was determined by the increase in fluorescence of the product of Mca-Pro-Leu breakdown of the Mca-Pro-Leu-Gly-Leu-Dpa-Ala-Arg-NH2 synthetic substrate.
The inhibiting concentration C150 for each compound was determined by measurement of the activity of the enzyme in the presence of the inhibitor at a concentration ranging between 10^−7 and 10^−12 M (the inhibitor is dissolved at a concentration of 10^−2 M in DMSO, then diluted successively by tenths in DMSO to 10^−4 M, then in the buffer: Tris, HCl 50 mM+0.05% Brij 35; CaCl2 10 mM; NaCl 0.15 M).

[4] = molecular target: stromelysine of human origin (Homo sapiens, UniProt P08254); test: Activity on stromelysine; type: biochemical; conditions: radiomarked transferrin, 37° C., 16 hours; read-out: C150 (nM) stromelysine
Procedure: as §1, with “stromelysine” for “gelatinase”, “transferrin,” for “gelatin,”, “transferrin.” for “gelatin.”

[5] = system: release of TNF from the peritoneal macrophages of mice stimulated by LPS; test: Inhibition of the production of TNF in vitro; type: cell-based; conditions: Peritoneal macrophage; mouse peritoneal macrophages, LPS 100 ng/ml; read-out: C150 (μM) TNF
Procedure: The capacity of the compounds according to this invention to inhibit the release of TNF was determined from the peritoneal macrophages of mice stimulated by LPS (Lang, F., Robert, […], Petit, J. Y., J. Pharmacol. Exp. Ther., 275, 171-176, 1995). After an adhesion phase of 2 hours, the cells were treated for 1 hour with the compound to be tested at concentrations ranging between 10^-6 to 10^-9 M (the inhibitor is dissolved in DMSO at 10^-2 M, then at 5.10^-3 M in RPMI 1640 with 5% SVF, then diluted successively by tenths in the same medium), then stimulated by the addition of LPS (100 ng/ml in final concentration). Three hours later, the biological activity of the TNF in the supernatants was determined by a cytotoxicity test using the murine stock L929 in accordance with the operating procedure described by Band, G., Lin, […]., Evans, C. H. (Bioch. Biophys. Acta, 1134, 309-318, 1982). The pg/ml concentration of the TNF of the samples was determined from a murine αTNF standard curve, thus making it possible to define the inhibiting concentration […] of the compounds studied.

Chain of stromelysine of human origin (P08254 100-477): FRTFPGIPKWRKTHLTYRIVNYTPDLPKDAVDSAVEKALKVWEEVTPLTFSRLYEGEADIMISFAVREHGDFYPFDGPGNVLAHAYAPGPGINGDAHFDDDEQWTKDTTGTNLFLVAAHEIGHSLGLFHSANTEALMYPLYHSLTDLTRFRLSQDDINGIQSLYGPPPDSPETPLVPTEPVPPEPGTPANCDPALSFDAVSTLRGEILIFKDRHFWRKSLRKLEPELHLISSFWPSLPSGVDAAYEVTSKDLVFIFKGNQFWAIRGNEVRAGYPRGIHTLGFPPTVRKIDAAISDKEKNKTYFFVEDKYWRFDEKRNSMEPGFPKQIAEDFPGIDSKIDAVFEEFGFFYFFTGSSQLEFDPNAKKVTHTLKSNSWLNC
Chain of 92 kDa gelatinase of human origin (P14780 94-707): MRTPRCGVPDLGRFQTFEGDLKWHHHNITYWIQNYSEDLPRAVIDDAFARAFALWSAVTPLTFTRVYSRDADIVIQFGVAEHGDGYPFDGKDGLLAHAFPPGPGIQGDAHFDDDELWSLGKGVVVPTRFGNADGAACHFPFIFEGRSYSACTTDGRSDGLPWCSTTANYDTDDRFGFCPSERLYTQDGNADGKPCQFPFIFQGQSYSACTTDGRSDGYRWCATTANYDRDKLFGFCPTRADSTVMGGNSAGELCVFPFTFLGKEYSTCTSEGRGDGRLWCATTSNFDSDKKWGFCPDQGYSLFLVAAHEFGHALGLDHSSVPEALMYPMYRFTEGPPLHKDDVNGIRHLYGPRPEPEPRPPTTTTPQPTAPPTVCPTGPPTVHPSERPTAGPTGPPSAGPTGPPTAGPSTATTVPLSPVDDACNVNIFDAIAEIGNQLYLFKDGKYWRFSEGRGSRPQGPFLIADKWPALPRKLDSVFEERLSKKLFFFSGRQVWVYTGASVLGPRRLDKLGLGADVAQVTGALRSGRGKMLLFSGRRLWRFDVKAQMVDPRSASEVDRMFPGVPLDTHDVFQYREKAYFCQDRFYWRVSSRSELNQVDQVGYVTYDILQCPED

| Structure (SMILES) | IC50 [1] [nM] | IC50 [2] [nM] | IC50 [3] [nM] | IC50 [4] [nM] | IC50 [5] [µM] | gelatinase 92 kDa* (in %) ([2]; radiomarked gelatin, concentration not given) [%] |
| --- | --- | --- | --- | --- | --- | --- |
| CNC(=O)[C@@H](NC(=O)[C@](O)(CC(C)C)[C@H](C)C(=O)NO)C(C)(C)C [Example 2, N-2-(S)[1(S)(hydroxycarbamoyl)ethyl]-2(S) hydroxy-4-methylpentanoyl 3-methyl-(S) valine N-methylamide] | 18 | 16 | 3.4 | 60 |  |  |
| CNC(=O)[C@H](Cc1ccc(Cl)cc1)NC(=O)[C@](O)(CC(C)C)[C@H](O)C(=O)NO [Example 3, N-2 (S) [(S) hydroxy (S) hydroxycarbamoylmethyl] 2(S) hydroxy 4-methyl pentanoyl L-4-chlorophenylalanine N-methylamide] | 50 | 54 | 6.7 | > 1000 | 3.2 |  |
| COc1ccc(C[C@H](NC(=O)[C@](O)(CC(C)C)[C@H](C)C(=O)NO)C(=O)NCc2ccccc2)cc1 [Example 5, N-2(S)[-1-(S)(hydroxycarbamoyl)-ethyl]-2(S) hydroxy-4-methyl 2entanol O methyl-L-tyrosine phenylmethylamide] | 12 | 0.5 | 2.4 | 11 |  |  |
| CNC(=O)[C@H](Cc1ccc(N)cc1)NC(=O)[C@](O)(CC(C)C)[C@H](C)C(=O)NO [Example 9, N-2(S)[1(S) (hydroxycarbamoyl) 1(S)ethyl]2-(S) hydroxy-4-methyl pentanoyl L-4-amino phenylalanine N-methylamide] | 11 | 2 | 1.6 | 50 | 2.2 |  |
| CSCCNC(=O)[C@H](Cc1ccc(Cl)cc1)NC(=O)[C@](O)(CC(C)C)[C@H](C)C(=O)NO [Example 13, N-2(S)[-1-(S)(hydroxycarbamoyl)-1 ethyl]-2(S) hydroxy-4-methylpentanoylL-4-chlorophenylalanine N-(2 methylthio-1-ethyl) amide] | 10 | 0.005 | 1.6 | 20 | 0.15 |  |
| CNC(=O)[C@H](Cc1ccc(I)cc1)NC(=O)[C@](O)(CC(C)C)[C@H](C)C(=O)NO [Example 14, N-2(S)[1(S) hydroxycarbamoyl-1 ethyl]-2(S) hydroxy 4 methyl pentanoyl L-4-iodophenylalanine N-methylamide] | 2 | 0.2 | 0.3 | 12 | 0.4 |  |
| CSCCNC(=O)[C@H](Cc1ccc(I)cc1)NC(=O)[C@](O)(CC(C)C)[C@H](C)C(=O)NO [Example 15, N-2(S)[1(S) hydroxycarbamoyl-1 ethyl]2(S) hydroxy 4-methylpentanoyl L-4-iodophenylalanine N-(2 methylthio-1-ethyl) amide] | 32 | 0.001 | 1.3 | 38 | 4.5 |  |
| CNC(=O)[C@H](Cc1ccc(Cl)cc1Cl)NC(=O)[C@](O)(CC(C)C)[C@H](C)C(=O)NO [Example 20, N-2(S)[1(S)hydroxycarbamoyl-1 ethyl]-2 (S) hydroxy 4-methylpentanoyl L-2,4-dichlorophenylalanine N-methylamide] | 3.7 | 0.2 | 1.6 |  | 1 |  |
| CNC(=O)[C@H](Cc1ccc(OC)cc1)NC(=O)[C@](O)(CC(C)C)[C@H](OC)C(=O)NO [Example 31, N-2(S)[(S) hydroxycarbamoyl(S)methoxy]methyl 2(S) hydroxy-4 methyl pentanoyl O-methyl tyrosine N-methylamide] | 120 | 140 | 18 | 90 |  |  |
| CNC(=O)[C@H](Cc1ccc(Cl)c(Cl)c1)NC(=O)[C@](O)(CCCc1ccccc1)[C@H](C)C(=O)NO [Example 33, N-2-(S)[1(S)(hydroxycarbamoyl)ethyl]2(S) hydroxy 5-phenylpentanoyl L-3,4-dichlorophenylalanine N-methylamide] | 225 |  | 0.01 |  | 0.58 | 86 |
